By IC50 is commonly meant the concentration that gives 50% inhibition.

We go through 19 compounds from patent US9328099B2, “Cyanomethylpyrazole carboxamides as janus kinase inhibitors” (Merck Sharp & Dohme Corp., priority 2011, dated 2016).

Assay [1] has as its target JAK1 (Homo sapiens (Human), UniProt P23458). The assay is described as follows: Jak Biochemical HTRF Assay, JAK1. To be noted: HTRF biochemical assay, GST-tagged catalytic domain; top concentration tested […]; read-out: JAK1 IC50. From the text:
(§1) Jak Biochemical HTRF Assay Protocol
(§2) Subsequent reagent additions employed an Agilent Bravo.
A general note: In TR-FRET formats the signal depends on donor and acceptor labels being close together.

The target in assay [2] is JAK2 (Homo sapiens (Human), UniProt O60674). The assay is described as follows: Jak Biochemical HTRF Assay, JAK2. To be noted: HTRF biochemical assay, GST-tagged catalytic domain; top concentration tested […].
Sequence of JAK2 (O60674 849-1124): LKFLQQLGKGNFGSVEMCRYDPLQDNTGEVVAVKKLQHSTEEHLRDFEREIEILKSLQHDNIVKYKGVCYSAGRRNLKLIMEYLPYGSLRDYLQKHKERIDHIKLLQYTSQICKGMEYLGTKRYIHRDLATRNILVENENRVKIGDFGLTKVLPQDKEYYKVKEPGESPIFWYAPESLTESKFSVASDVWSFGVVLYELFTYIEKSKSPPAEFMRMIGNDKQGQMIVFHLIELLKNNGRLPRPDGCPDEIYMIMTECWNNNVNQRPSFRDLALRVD
Description: as §1, §2

Sequence of JAK1 (P23458 875-1153): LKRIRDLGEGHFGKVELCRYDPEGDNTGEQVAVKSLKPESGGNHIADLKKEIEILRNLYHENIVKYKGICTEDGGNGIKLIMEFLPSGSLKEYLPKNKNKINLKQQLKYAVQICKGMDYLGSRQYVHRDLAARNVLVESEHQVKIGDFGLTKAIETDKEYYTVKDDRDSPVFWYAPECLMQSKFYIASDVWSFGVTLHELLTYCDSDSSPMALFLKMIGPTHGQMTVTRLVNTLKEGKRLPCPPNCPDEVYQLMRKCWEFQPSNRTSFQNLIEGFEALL

Consider `N#CCC1(n2cc(C(N)=O)c(Nc3ccc(F)cc3)n2)CCC(NCC2CC2)CC1` (stereo not drawn) [Example 40-69, Cis or trans 1-{1-(cyanomethyl)-4-[(cyclopropylmethyl)amino]cyclohexyl}-3-[(4-fluorophenyl)amino]-1H-pyrazole-4-carboxamide], for which the IC50 came to 9 nM in assay [1] and 667 nM in assay [2].
Taken in the same sequence, the figures for `N#CCC1(n2cc(C(N)=O)c(Nc3ccc(F)cc3)n2)CCC(N2CCC(F)(F)CC2)CC1` (stereo not drawn) [Example 40-70, Cis or trans 1-[1-(cyanomethyl)-4-(4,4-difluoropiperidin-1-yl)cyclohexyl]-3-[(4-fluorophenyl)amino]-1H-pyrazole-4-carboxamide] were 0.2 nM and 9 nM.
The matching figures for `COCCNC1CCC(CC#N)(n2cc(C(N)=O)c(Nc3ccc(F)cc3)n2)CC1` (stereo not drawn) [Example 40-71, Cis or trans 1-{1-(cyanomethyl)-4-[(2-methoxyethyl)amino]cyclohexyl}-3-[(4-fluorophenyl)amino]-1H-pyrazole-4-carboxamide]: 24 nM and 814 nM.
Taken in the same sequence, the figures for `CN(CCS(C)(=O)=O)C1CCC(CC#N)(n2cc(C(N)=O)c(Nc3ccc(F)cc3)n2)CC1` (stereo not drawn) [Example 40-72, Cis or trans 1-[1-(cyanomethyl)-4-{methyl[2-(methylsulfonyl)ethyl]amino}cyclohexyl]-3-[(4-fluorophenyl)amino]-1H-pyrazole-4-carboxamide] were 1 nM and 37 nM.
`N#CCC1(n2cc(C(N)=O)c(Nc3ccc(F)cc3)n2)CCC(Nc2ccc(C(F)(F)F)cc2)CC1` (stereo not drawn) [Example 40-73, Cis or trans 1-[1-(cyanomethyl)-4-{[4-(trifluoromethyl)phenyl]amino}cyclohexyl]-3-[(4-fluorophenyl)amino]-1H-pyrazole-4-carboxamide]: the IC50 in assay [1] was 139 nM; in assay [2], over 1500 nM.
The matching figures for `COC1CN(C2CCC(CC#N)(n3cc(C(N)=O)c(Nc4ccc(F)cc4)n3)CC2)C1` (stereo not drawn) [Example 40-74, Cis or trans 1-[1-(cyanomethyl)-4-(3-methoxyazetidin-1-yl)cyclohexyl]-3-[(4-fluorophenyl)amino]-1H-pyrazole-4-carboxamide]: 1 nM and 35 nM.
With `N#CCC1(n2cc(C(N)=O)c(Nc3ccc(F)cc3)n2)CCC(Nc2cccnc2)CC1` (stereo not drawn) [Example 40-75, Cis or trans 1-[1-(cyanomethyl)-4-(pyridin-3-ylamino)cyclohexyl]-3-[(4-fluorophenyl)amino]-1H-pyrazole-4-carboxamide], the 50% inhibitory concentration (IC50) came to 0.2 nM in assay [1] and 7 nM in assay [2].
Taken in the same sequence, the figures for `CC(=O)N1CCN(C2CCC(CC#N)(n3cc(C(N)=O)c(Nc4ccc(F)cc4)n3)CC2)CC1` (stereo not drawn) [Example 40-76, Cis or trans 1-[4-(4-acetylpiperazin-1-yl)-1-(cyanomethyl)cyclohexyl]-3-[(4-fluorophenyl)amino]-1H-pyrazole-4-carboxamide] were 13 nM and 225 nM.
On to `N#CCC1(n2cc(C(N)=O)c(Nc3ccc(F)cc3)n2)CCC(NCC(F)F)CC1` (stereo not drawn) [Example 40-77, Cis or trans 1-{1-(cyanomethyl)-4-[(2,2-difluoroethyl)amino]cyclohexyl}-3-[(4-fluorophenyl)amino]-1H-pyrazole-4-carboxamide], for which the figures for the IC50 in assay [1] and in assay [2] were 0.7 nM and 13 nM, respectively.
Taken in the same sequence, the figures for `N#CCC1(n2cc(C(N)=O)c(Nc3ccc(F)cc3)n2)CCC(NCCF)CC1` (stereo not drawn) [Example 40-79, Cis or trans 1-{1-(cyanomethyl)-4-[(2-fluoroethyl)amino]cyclohexyl}-3-[(4-fluorophenyl)amino]-1H-pyrazole-4-carboxamide] were 8 nM and 133 nM.
Taken in the same sequence, the figures for `N#CCC1(n2cc(C(N)=O)c(Nc3ccc(F)cc3)n2)CCC(N2CCC2)CC1` (stereo not drawn) [Example 40-80, Cis or trans 1-[4-azetidin-1-yl-1-(cyanomethyl)cyclohexyl]-3-[(4-fluorophenyl)amino]-1H-pyrazole-4-carboxamide] were 14 nM and 325 nM.
The matching figures for `COC1CN(C2CCC(CC#N)(n3cc(C(N)=O)c(Nc4ccnc(F)c4)n3)CC2)C1` (stereo not drawn) [Example 40-81, Cis or trans 1-[1-(cyanomethyl)-4-(3-methoxyazetidin-1-yl)cyclohexyl]-3-[(2-fluoropyridin-4-yl)amino]-1H-pyrazole-4-carboxamide]: 0.1 nM and 5 nM.
On to `N#CCC1(n2cc(C(N)=O)c(Nc3ccnc(F)c3)n2)CCC(N2CC(F)C2)CC1` (stereo not drawn) [Example 40-82, Cis or trans 1-[1-(cyanomethyl)-4-(3-fluoroazetidin-1-yl)cyclohexyl]-3-[(2-fluoropyridin-4-yl)amino]-1H-pyrazole-4-carboxamide], for which the IC50 in assay [1] came to 26 nM; in assay [2], 444 nM.
Taken in the same sequence, the figures for `N#CCC1(n2cc(C(N)=O)c(Nc3ccc(S(=O)(=O)C(F)F)cc3)n2)CCC(NCC(F)F)CC1` (stereo not drawn) [Example 40-84, Cis or trans 1-{1-(cyanomethyl)-4-[(2,2-difluoroethyl)amino]cyclohexyl}-3-({4-[(difluoromethyl)sulfonyl]phenyl}amino)-1H-pyrazole-4-carboxamide] were 0.04 nM and 3 nM.
Take `N#CCC1(n2cc(C(N)=O)c(Nc3ccc(S(=O)(=O)C(F)F)cc3)n2)CCC(NCC(F)(F)F)CC1` (stereo not drawn) [Example 40-85, Cis or trans 1-{1-(cyanomethyl)-4-[(2,2,2-trifluoroethyl)amino]cyclohexyl}-3-({4-[(difluoromethyl)sulfonyl]phenyl}amino)-1H-pyrazole-4-carboxamide]: the results for the IC50 in assay [1] and in assay [2] were 0.02 nM and 0.2 nM, respectively.
Take `N#CCC1(n2cc(C(N)=O)c(Nc3ccnc(F)c3)n2)CCC(NCC(F)F)CC1` (stereo not drawn) [Example 40-87, Cis or trans 1-{1-(cyanomethyl)-4-[(2,2-difluoroethyl)amino]cyclohexyl}-3-[(2-fluoropyridin-4-yl)amino]-1H-pyrazole-4-carboxamide]: the IC50 came to 13 nM in assay [1] and 524 nM in assay [2].
Taken in the same sequence, the figures for `N#CCC1(n2cc(C(N)=O)c(Nc3ccc(S(=O)(=O)C(F)F)cc3)n2)CCC(Nc2ccccc2)CC1` (stereo not drawn) [Example 40-88, Cis or trans 1-[1-(cyanomethyl)-4-(phenylamino)cyclohexyl]-3-({4-[(difluoromethyl)sulfonyl]phenyl}amino)-1H-pyrazole-4-carboxamide] were 200 nM and over 1500 nM.
Taken in the same sequence, the figures for `N#CCC1(n2cc(C(N)=O)c(Nc3ccc(S(=O)(=O)C(F)F)cc3)n2)CCC(NCC(F)(F)F)CC1` (stereo not drawn) [Example 40-89, Cis or trans 1-{1-(cyanomethyl)-4-[(2,2,2-trifluoroethyl)amino]cyclohexyl}-3-({4-[(difluoromethyl)sulfonyl]phenyl}amino)-1H-pyrazole-4-carboxamide] were 13 nM and 466 nM.
Turning to `N#CCC1(n2cc(C(N)=O)c(Nc3ccc(F)cc3)n2)CCC(N2Cc3ccccc3C2)CC1` (stereo not drawn) [Example 40-90, Cis or trans 1-[1-(cyanomethyl)-4-(1,3-dihydro-2H-isoindol-2-yl)cyclohexyl]-3-[(4-fluorophenyl)amino]-1H-pyrazole-4-carboxamide], the IC50 in assay [1] came out at 9 nM; in assay [2] it was 84 nM.
